The results in this text go back to ChEMBL document CHEMBL2046362, “Synthesis and evaluation of novel potent HCV NS5A inhibitors” (Bioorg Med Chem Lett, 2012).

Structures are written as SMILES.

In data set [1] the target is T1, Nonstructural protein 5A (Hepatitis C virus) (UniProt Q5L478).
T1 sequence (whole entry): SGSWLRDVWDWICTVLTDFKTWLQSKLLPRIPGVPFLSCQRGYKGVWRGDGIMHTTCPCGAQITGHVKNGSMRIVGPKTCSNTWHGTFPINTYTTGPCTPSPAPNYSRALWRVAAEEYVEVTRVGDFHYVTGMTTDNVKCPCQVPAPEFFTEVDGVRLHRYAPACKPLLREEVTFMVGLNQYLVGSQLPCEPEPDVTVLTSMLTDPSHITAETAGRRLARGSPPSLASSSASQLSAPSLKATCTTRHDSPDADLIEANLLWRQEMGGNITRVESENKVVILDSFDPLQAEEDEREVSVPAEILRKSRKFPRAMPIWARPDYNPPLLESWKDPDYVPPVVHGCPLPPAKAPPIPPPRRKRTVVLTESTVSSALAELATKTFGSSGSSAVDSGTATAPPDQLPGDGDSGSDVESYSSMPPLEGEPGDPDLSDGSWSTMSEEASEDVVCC
In words: Inhibition of HCV NS5A assessed as antiviral activity against HCV by viral replicon assay. The note with it: Hepacivirus hominis.

Data set [2] in a line: Cytotoxicity against human HuH7 cells. The format is cell-based, Huh-7.
Data set [3] concerns Liver microsomes. In words: Half life in human liver microsomes at 1 uM measured 5 to 60 mins post dose by LC-MS/MS nethod. It counts as ADME, Microsome. (In general: Liver microsomes are a subcellular fraction often used to study metabolism.)
Data set [4] has as its target Cytochrome P450 2C9 (Homo sapiens, UniProt P11712). In words: Inhibition of CYP2C9. The format is ADME.
Data set [5] concerns PBMC. In words: Cytotoxicity against human PBMC cells. The format is cell-based. The note with it: pbmc.
The test system of data set [6] is CCRF-CEM. In words: Cytotoxicity against human CEM cells. It counts as cell-based.
In data set [7] the test system is Vero. Put plainly: Cytotoxicity against african green monkey Vero cells. It counts as cell-based. The note with it: chlorocebus sabaeus.
Data set [8] in a line: Cytotoxicity against human primary lymphocytes. The format is cell-based. The note with it: lymphocyte.
The nature of data set [9]: Chemical stability in phosphate buffer assessed as compound degradation at pH 7 at 20 degC measured between 2 to 48 hrs during 48 hrs incubation period. It counts as physicochemical. The note with it: pH 7, 48 h.
Data set [10] concerns Liver microsomes. In words: Intrinsic clearance in human liver microsomes assessed per mg protein at 1 uM measured 5 to 60 mins post dose by LC-MS/MS nethod. The format is ADME, Microsome.
Data set [11] is described as follows: Chemical stability in phosphate buffer assessed as compound degradation at pH 3 at 20 degC measured between 1 to 48 hrs during 48 hrs incubation period. The settings on record: pH 3, 48 h.

Cytochrome P450 2C9, sequence (P11712 whole entry): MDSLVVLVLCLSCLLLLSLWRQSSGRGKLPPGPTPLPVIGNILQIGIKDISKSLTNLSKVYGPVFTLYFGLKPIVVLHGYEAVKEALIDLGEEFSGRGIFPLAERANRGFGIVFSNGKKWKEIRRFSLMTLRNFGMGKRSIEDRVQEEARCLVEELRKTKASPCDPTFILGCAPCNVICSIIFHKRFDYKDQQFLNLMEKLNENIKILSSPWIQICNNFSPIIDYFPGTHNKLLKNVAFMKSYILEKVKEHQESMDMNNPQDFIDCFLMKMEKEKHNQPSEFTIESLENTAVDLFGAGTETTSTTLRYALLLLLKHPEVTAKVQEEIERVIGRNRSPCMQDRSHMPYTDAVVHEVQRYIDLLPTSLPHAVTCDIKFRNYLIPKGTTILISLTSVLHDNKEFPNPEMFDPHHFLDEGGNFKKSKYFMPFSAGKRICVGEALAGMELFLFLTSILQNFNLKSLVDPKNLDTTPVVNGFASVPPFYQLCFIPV

Broadly, the EC90 is the concentration at which the effect reaches the 90% level. For the compound `COC(=O)N[C@H](C(=O)N1CCC[C@H]1c1ncc(-c2ccc(-c3ccc(-c4cnc([C@@H]5CCCN5C(=O)[C@@H](NC(=O)OC)C(C)C)[nH]4)cc3)cc2)[nH]1)C(C)C`, in data set [1], the EC90 amounted to 0.02 nM.

A word on the CC50: it is the concentration at which the toxic effect on the cells reaches its halfway point. The term IC50 denotes the concentration that inhibits the measured activity by half. `COC(=O)N[C@H](C(=O)N1CCC[C@H]1c1nc(-c2ccc(-c3ccc(-c4c[nH]c([C@@H]5CCCN5C(=O)[C@@H](NC(=O)OC)C(C)C)n4)cc3)cc2)c[nH]1)C(C)C`: the CC50 in [2] was above 1 µM. The t1/2 in data set [3] is on record as 56.3 min. The compound further gave an IC50 in data set [4] of 59.5 µM.

Turning to `COC(=O)N[C@H](C(=O)N1CCC[C@H]1c1ncc(-c2ccc(-c3ccc(-c4[nH]c([C@@H]5CCCN5C(=O)[C@@H](NC(=O)OC)C(C)C)nc4F)cc3)cc2)[nH]1)C(C)C`, in data set [1], the EC90 amounted to 0.0525 nM. In addition, the CC50 in data set [2] is above 1 µM; in [5] it was 16 µM; in data set [6], 2.8 µM; in [7], 83 µM.

As for `COC(=O)N[C@H](C(=O)N1C[C@@H](n2cc(C(=O)OC)nn2)C[C@H]1c1ncc(-c2ccc(-c3ccc(-c4cnc([C@@H]5C[C@H](n6cc(C(=O)OC)nn6)CN5C(=O)[C@@H](NC(=O)OC)C(C)C)[nH]4)cc3)cc2)[nH]1)C(C)C`, in data set [1], the EC90 was above 10 nM. Moreover, the results for the CC50 in [2], in [5] and in data set [6] were above 1 µM, above 100 µM and above 100 µM, respectively.

Regarding `COC(=O)N[C@H](C(=O)N1C[C@H](N=[N+]=[N-])C[C@H]1c1nc(Cl)c(-c2ccc(-c3ccc(-c4[nH]c([C@@H]5C[C@@H](N=[N+]=[N-])CN5C(=O)[C@@H](NC(=O)OC)C(C)C)nc4Cl)cc3)cc2)[nH]1)C(C)C`, the EC90 in data set [1] was 0.0096 nM. Further, the half-maximal cytotoxic concentration (CC50) in data set [2] is above 1 µM; in data set [5], 7.8 µM; in data set [6] it was 3.8 µM; in data set [7] it was above 100 µM.

For `COC(=O)N[C@H](C(=O)N1C[C@H](n2cc(-c3ccccc3)nn2)C[C@H]1c1ncc(-c2ccc(-c3ccc(-c4cnc([C@@H]5C[C@@H](n6cc(-c7ccccc7)nn6)CN5C(=O)[C@@H](NC(=O)OC)C(C)C)[nH]4)cc3)cc2)[nH]1)C(C)C`, in data set [1], the EC90 is 9.2 nM. Also, the results for the half-maximal cytotoxic concentration (CC50) in data set [2], in [5] and in data set [6] were above 1 µM, above 100 µM and above 100 µM, respectively.

With `COC(=O)N[C@H](C(=O)N1C[C@@H](n2cc(-c3ccccc3)nn2)C[C@H]1c1ncc(-c2ccc(-c3ccc(-c4cnc([C@@H]5C[C@H](n6cc(-c7ccccc7)nn6)CN5C(=O)[C@@H](NC(=O)OC)C(C)C)[nH]4)cc3)cc2)[nH]1)C(C)C`, the EC90 in data set [1] is above 10 nM. Besides, the values for the CC50 in data set [2], in [5] and in data set [7] were above 1 µM, 96 µM and above 100 µM, respectively.

Turning to `COC(=O)N[C@H](C(=O)N1CCC[C@H]1c1nc(-c2ccccc2)c(-c2ccc(-c3ccc(-c4[nH]c([C@@H]5CCCN5C(=O)[C@@H](NC(=O)OC)C(C)C)nc4-c4ccccc4)cc3)cc2)[nH]1)C(C)C`, the EC90 in data set [1] came to 0.7 nM. The half-maximal cytotoxic concentration (CC50) was above 1 µM in [2], above 100 µM in data set [5], 37.4 µM in data set [6] and above 100 µM in data set [7].

Turning to `COC(=O)N[C@H](C(=O)N1CCC[C@H]1c1nc(I)c(-c2ccc(-c3ccc(-c4[nH]c([C@@H]5CCCN5C(=O)[C@@H](NC(=O)OC)C(C)C)nc4I)cc3)cc2)[nH]1)C(C)C`, the EC90 in data set [1] worked out at 0.011 nM. Also, the 50% cytotoxic concentration (CC50) is above 1 µM in data set [2], 4.7 µM in [5], 35 µM in [6] and above 100 µM in data set [7]. Moreover, the Activity entry in data set [8] was “Toxic”. In addition, the Stability entry in data set [9] and in data set [11] was “Stable” in each case. The compound further registered a t1/2 in [3] of 38.5 min. The compound further returned a CLint in [10] of 18 µL/min/mg.

Consider `COC(=O)N[C@H](C(=O)N1C[C@@H](N=[N+]=[N-])C[C@H]1c1ncc(-c2ccc(-c3ccc(-c4cnc([C@@H]5C[C@H](N=[N+]=[N-])CN5C(=O)[C@@H](NC(=O)OC)C(C)C)[nH]4)cc3)cc2)[nH]1)C(C)C`, for which the EC90 in [1] amounted to 0.0352 nM. The CC50 in [2] is above 1 µM; in [5], 20.3 µM; in data set [6], 18.4 µM; in [7], above 100 µM.

`COC(=O)N[C@H](C(=O)N1C[C@H](n2cc(C(=O)OC)nn2)C[C@H]1c1ncc(-c2ccc(-c3ccc(-c4cnc([C@@H]5C[C@@H](n6cc(C(=O)OC)nn6)CN5C(=O)[C@@H](NC(=O)OC)C(C)C)[nH]4)cc3)cc2)[nH]1)C(C)C`: the EC90 in [1] stood at 0.0428 nM. Further, the half-maximal cytotoxic concentration (CC50) in data set [2] is above 1 µM; in [5] it was 6.6 µM; in [6], 10.7 µM; in data set [7], above 100 µM.

As for `COC(=O)N[C@H](C(=O)N1C[C@H](N=[N+]=[N-])C[C@H]1c1ncc(-c2ccc(-c3ccc(-c4[nH]c([C@@H]5C[C@@H](N=[N+]=[N-])CN5C(=O)[C@@H](NC(=O)OC)C(C)C)nc4Cl)cc3)cc2)[nH]1)C(C)C`, the EC90 in data set [1] came out at 0.0295 nM. Besides, the CC50 is above 1 µM in data set [2], 9.7 µM in data set [5], 31 µM in data set [6] and above 100 µM in [7].

As to `COC(=O)N[C@H](C(=O)N1CCC[C@H]1c1nc(Br)c(-c2ccc(-c3ccc(-c4[nH]c([C@@H]5CCCN5C(=O)[C@@H](NC(=O)OC)C(C)C)nc4Br)cc3)cc2)[nH]1)C(C)C`, in data set [1], the concentration for an effect of 90% (EC90) came to 0.014 nM. Further, the CC50 in data set [2] is above 1 µM; in [5] it was 2.9 µM; in data set [6] it was 5.7 µM; in data set [7], 84 µM. The Stability result in [9] and in data set [11] was “Stable” each time. This compound showed a t1/2 in data set [3] of 67.3 min. Also, in [10], the CLint is 10.3 µL/min/mg.

With `COC(=O)N[C@H](C(=O)N1C[C@@H](N=[N+]=[N-])C[C@H]1c1nc(Br)c(-c2ccc(-c3ccc(-c4[nH]c([C@@H]5C[C@H](N=[N+]=[N-])CN5C(=O)[C@@H](NC(=O)OC)C(C)C)nc4Br)cc3)cc2)[nH]1)C(C)C`, in data set [1], the EC90 came to 0.0553 nM. For the same compound, the CC50 was above 1 µM in [2], 3.4 µM in [5] and 4.5 µM in [6].

Consider `COC(=O)N[C@H](C(=O)N1C[C@@H](N=[N+]=[N-])C[C@H]1c1nc(Cl)c(-c2ccc(-c3ccc(-c4[nH]c([C@@H]5C[C@H](N=[N+]=[N-])CN5C(=O)[C@@H](NC(=O)OC)C(C)C)nc4Cl)cc3)cc2)[nH]1)C(C)C`, for which the EC90 in data set [1] amounted to 0.0746 nM. For the same compound, the CC50 in data set [2] is above 1 µM; in data set [5], 3.3 µM; in [6], 4 µM; in data set [7], 98.1 µM.

On to `COC(=O)N[C@H](C(=O)N1C[C@H](N=[N+]=[N-])C[C@H]1c1nc(Br)c(-c2ccc(-c3ccc(-c4[nH]c([C@@H]5C[C@@H](N=[N+]=[N-])CN5C(=O)[C@@H](NC(=O)OC)C(C)C)nc4Br)cc3)cc2)[nH]1)C(C)C`, for which the EC90 in [1] was 0.0216 nM. For the same compound, the CC50 was above 1 µM in [2], 19.8 µM in [5], 10.8 µM in data set [6] and above 100 µM in data set [7].

Regarding `COC(=O)N[C@H](C(=O)N1CCC[C@H]1c1nc(-c2cccs2)c(-c2ccc(-c3ccc(-c4[nH]c([C@@H]5CCCN5C(=O)[C@@H](NC(=O)OC)C(C)C)nc4-c4cccs4)cc3)cc2)[nH]1)C(C)C`, the EC90 in data set [1] was 0.3 nM. Also, the CC50 was above 1 µM in [2], 44.6 µM in [5], above 100 µM in [6] and above 100 µM in data set [7].

Take `COC(=O)N[C@H](C(=O)N1CCC[C@H]1c1nc(-c2ccco2)c(-c2ccc(-c3ccc(-c4[nH]c([C@@H]5CCCN5C(=O)[C@@H](NC(=O)OC)C(C)C)nc4-c4ccco4)cc3)cc2)[nH]1)C(C)C`: in data set [1], the EC90 worked out at 0.097 nM. For the same compound, the CC50 is above 1 µM in [2], 49.2 µM in data set [5], 2.9 µM in [6] and above 100 µM in data set [7].
